Assay results from patent publication US20160278381A1, “Agricultural And Horticultural Fungicidal Composition And Method Of Use Of the Same” (NIHON NOHYAKU CO., LTD., priority 2015, published 2016).

System: Pythium aphanidermatum
Test: Test Example 1: spray on lawn grass sods, inoculation with Pythium aphanidermatum, control value from lesion diameter
Format: in vivo
Settings: for Control Value (%): alone, lesion diameter seven days after inoculation; for efficacy against Pythium aphanidermatum: treated each alone
Source text: With a hand spray, chemical agents (no spreader added) prepared from commercial formulations at the predetermined concentrations were sprayed with the volume of 0.25 l/m^2. Seven days after the final spraying, with a hole cutter (10 cm in diameter), two sods were cut out, transferred into a greenhouse and inoculated with Pythium aphanidermatum.
For the test plot for the present invention, chemical solutions of tiadinil and chlorothalonil were each prepared, and each of the chemical solutions were blended for use as compositions and combinations.
Seven days after the inoculation, lesion diameters in each treated plots and the untreated plot were measured for calculating the control values for each treated plots using an equation below.
In general, in a case, where two active ingredients given are mixed and treated, if the actual efficacy measured is larger than the Colby's expectation value (E) calculated using the Colby's equation below, wherein value (E) is interpreted to denote an expected control value (%) which is predicted by the combination of the two active ingredients, the function achieved by the combination of the two active ingredients is determined to be synergistic.
(wherein X represents the preventive value (%) of one of the active ingredients and Y represents the preventive value (%) of the other active ingredient.)

Compound | Control Value (%) (dose 1.1 fl oz/1,000 ft^2) | efficacy against Pythium aphanidermatum | Control Value (%) (dose 0.15625 fl oz/1,000 ft^2) | Control Value (%) (dose 0.3125 fl oz/1,000 ft^2) | Control Value (%) (dose 0.625 fl oz/1,000 ft^2) | Control Value (%) (dose 1.25 fl oz/1,000 ft^2)
N#Cc1c(Cl)c(Cl)c(Cl)c(C#N)c1Cl [Chlorothalonil, chlorothalonil] | 22 | did not show sufficient efficacy | – | – | – | –
Cc1ccc(NC(=O)c2snnc2C)cc1Cl [Tiadinil, tiadinil] | – | did not show sufficient efficacy | 11 | 11 | 22 | 22
